According to patent US10538674B2, “Method of forming anti-rust or anti-bacterial film containing tannic acid derivatives” (NATIONAL INSTITUTE FOR MATERIALS SCIENCE, priority 2014, dated 2020):

Experiments:
colon bacilli (E. Coli) = assay: Pasteurization/Sterilization Testing 1: E. Coli scattered on film on glass substrate; format: cell-based; conditions: drop-cast film on glass substrate, room temperature, 24 hours after scattering, 0 hour count 1.2×10^5
Experimental: Using TA (Comparative Example 1), TA(C6)10 (Example 6), TA(C10)10 (Example 2), and TA(C16)10 (Example 8), respectively, a film was formed by drop-casting on a 5 cm×5 cm glass substrate. Preparing a THF solution, drop-casting of the THF solution in an amount of 1.1 mg/cm^2 was followed by annealing under the conditions of 1 hour and 80° C. to prepare a drop-cast film. The TA (Comparative Example 1), TA(C6)10 (Example 6), TA(C10)10 (Example 2), and TA(C16)10 (Example 8) film was formed on the glass substrate by the aforesaid method, and colon bacilli (E. Coli) were scattered on it to observe changes in the surface of the film at room temperature. FIG. 18 is a graph representative of the results of proliferation of bacteria on the film. The cell count of colon bacilli scattered at the start (0 hour) was 1.2×10^5 CFU/mL. After the lapse of 24 hours, that cell count increased to 1.4×10^7 CFU/mL for the TA coated (control) film. […] A problem with tannic acid—known so far to be capable of pasteurization in the form of an aqueous solution—was that a tannic acid film is wrinkled up, running short of durability. […] It is here to be noted that the unit CFU/mL is an abbreviation of a colony forming unit indicative of a quantitative unit used in the inspection of bacteria in foods or a unit of the quantity of bacteria. […]

[1] = test system: golden staphs (S. Aureus); assay: Pasteurization/Sterilization Testing 1: S. Aureus scattered on film on glass substrate; format: cell-based; conditions: drop-cast film on glass substrate, 24 hours after scattering; 0 hour count 1.1 × 10^5
[2] = Solubility upon addition to water and chloroform; format: physicochemical
Text: Tannic acid powders (WAKO, 203-06331) were kept at the ready. FIG. 2(a) is a photograph taken of the external view of tannic acid powders, FIG. 2(b) is a photograph of the external view of tannic acid powders upon added to water, and FIG. 2(c) is a photograph of the external view of tannic acid powders upon added to chloroform. As shown in FIG. 2(a), the tannic acid powders were ocher powders. […] This tannic acid material was used for Comparative Example 1. FIG. 4(a) is a photograph taken of the external view of the derivative, and FIGS. 4(b) and 4(c) are photographs taken of the external views of the derivative upon added to water and chloroform, respectively.

[3] = test system: methicillin-resistant Staphylococcus Aureus (MRSA); assay: Pasteurization/Sterilization Testing 1: MRSA scattered on film on glass substrate; format: cell-based; conditions: drop-cast film on glass substrate, 24 hours after scattering; 0 hour count 1.2 × 10^5

Solubility in chloroform ([2]; upon added to chloroform (CHCl3)): not in chloroform
Solubility in water ([2]; upon added to water): dissolved in water
Compound: O=C(OC[C@H]1O[C@@H](OC(=O)c2cc(O)c(O)c(OC(=O)c3cc(O)c(O)c(O)c3)c2)[C@H](OC(=O)c2cc(O)c(O)c(OC(=O)c3cc(O)c(O)c(O)c3)c2)[C@@H](OC(=O)c2cc(O)c(O)c(OC(=O)c3cc(O)c(O)c(O)c3)c2)[C@@H]1OC(=O)c1cc(O)c(O)c(OC(=O)c2cc(O)c(O)c(O)c2)c1)c1cc(O)c(O)c(OC(=O)c2cc(O)c(O)c(O)c2)c1 [TA, tannic acid]
Cell count of E. Coli, 24 hours (colon bacilli (E. Coli); listed as Control): 1.4 × 10^7 CFU/mL
Cell count of E. Coli, 24 hours (colon bacilli (E. Coli); listed as TA coated (control)): 1.4×10^7 CFU/mL
Cell count of S. Aureus, 24 hours [1]: 1.1 × 10^5 CFU/mL
Cell count of MRSA, 24 hours [3]: 1.7 × 10^5 CFU/mL
